Results from patent publication US11384076B2, “Synthesis, pharmacology and use of new and selective FMS-like tyrosine kinase 3 (FLT3) FLT3 inhibitors” (UNIVERSITÄT REGENSBURG, priority 2017, dated 2022).

Experiments:
[1] = system: FLT3-ITD in MOLM-13 cells; test: FLT3-ITD signaling, Western blot of cell lysates; conditions: MOLM-13, 5 nM
[2] = system: NB4 cells; test: Cell cycle distribution / subG1 fraction, PI staining, flow cytometry; type: cell-based, human; conditions: NB4, 2, 5, 10 nM, 48 h
Method: (§1) FIG. 5: Diverse human cell lines or cells were treated with different concentrations of Marbotinib (2 nM, 5 nM or 10 nM) or 5 μM STS for 48 h. Cells were harvested and stained with PI; cell cycle distribution were analyzed by flow cytometry. Cell cycle distribution and changes of subG1 fraction are illustrated. A) K562 cell line; B) NB4 cell line; C) PBMCs; n=2
(§2) After incubation, cells were harvested on ice and fixed in 80% ethanol at −20° C. for at least 1 h. Next, the cells were incubated with RNase for 30 min at room temperature, thereafter stained with propidium iodide (PI), and measured immediately with a flow cytometer. PI intercalates into DNA. In the different phases of the cell cycle, cells incorporate various amounts of PI. This allows the quantification of the cell cycle phases. The subG1 population represents the fraction of apoptotic/necrotic cells, which contains only fragmented DNA (DNA content <2N).
(§3) Additional experiments were performed to ensure the specificity of Marbotinib. Other human blood cell lines that carry no FLT3-ITD were stimulated with Marbotinib and analyzed. K562 cells derived from a patient with chronic myeloid leukemia. These cells are precursors from erythrocytes and carry a mutation of the tyrosine kinase BCR-ABL. The NB4 cells derived from a patient with acute promyelocytic leukemia and carry a mutation in the PML-RARA fusion protein (Noack, Mahendrarajah et al. 2016). Peripheral blood mononuclear cells (PBMCs) were freshly isolated from whole blood samples and used immediately for experiments. K562, NB4 and PBMCs were stimulated with different concentrations of Marbotinib for 48 h and cell cycle distribution was analyzed by flow cytometry. Marbotinib selectively leads to an increase of subG1 fraction only in FLT3-ITD positive cell lines (FIG. 3 and FIG. 4). Cell lines or cells that carry no FLT3-ITD are not affected by Marbotinib (FIG. 5).

[3] = system: PBMCs; test: as above; type: cell-based, human; conditions: PBMCs, 2, 5, 10 nM, 48 h
Method: as §1, §2, §3

[4] = system: K562 cells; test: as above; type: cell-based, human; conditions: K562, 2, 5, 10 nM, 48 h
Method: as §1, §2, §3

[5] = system: Ba/F3 ITD N676K mutant; test: FLT3 signaling in Ba/F3 mutants, Western blot; conditions: 5 nM, 2 h
[6] = system: FLT3-ITD in MV4-11 cells; test: Dephosphorylation of FLT3-ITD and downstream targets over time, Western blot; type: cell-based, human; conditions: 5 nM; 2 h, 6 h, 16 h, 24 h
From the text: Whole cell lysates were used for SDS-Page and Western blot. The blots show dephosporylation of FLT3-ITD and some of its downstream targets, cell cycle regulators, and DNA damage regulators after treatment with FLT3-inhibitors over time. GAPDH was used as loading control. Control is indicated as CTRL. Marbotinib is indicated as FLT3i3 and Marbotinib-Carbamat is indicated as FLT3i540.

[7] = system: MV4-11 cells; test: Vitality assay, DAPI staining, flow cytometry; type: cell-based, human; conditions: 1, 5, 10, 100 nM, 48 h; especially at 1 nM, 5 nM and 10 nM
Method: FIG. 14: Results of vitality assay in which MV4-11 cells were exposed to FLT3-inhibitors Marbotinib, Marbotinib Carbamate and ACC220, at different concentrations, and cell viability staining was performed.
MV4-11 cells were treated with FLT3-inhibitors at different concentrations (1 nM, 5 nM, 10 nM, 100 nM) for 48 h. Viability staining was performed using life cell staining with DAPI. Samples were analysed using flow cytometry via FACS Canto; N=3.

[8] = system: MV4-11 cells; test: AnnexinV FITC/PI apoptosis staining, flow cytometry; type: cell-based, human; conditions: MV4-11, 2, 5, 10 nM, 24 h
Method: (§4) FIG. 6: […] Illustrated are the different populations of living cells, early apoptosis and late apoptosis/necrosis. To elucidate the apoptotic effects the population of cells in early apoptosis and late apoptosis/necrosis is represented in a separate diagram. A) MV4-11 cell line; B) PBMCs; n=1 To analyze apoptosis cells were treated as indicated and harvested on ice. Thereafter cells were stained with Annexin V FITC for 15 min on ice in the dark. After incubation time cells were stained with PI and measured immediately on flow cytometer. An Annexin V FITC and PI single stained sample was used for compensation and an unstained control sample was used to exclude autofluorescence. […] The subG1 fraction is only a hint for apoptosis therefore we stained MV4-11 cells and PBMCs for AnnexinV FITC/PI. This staining allows a differentiation between early apoptosis and late apoptosis. […] Treating FLT3-ITD positive cells with only 5 nM Marbotinib leads to a strong induction of apoptosis without affecting other cells or cell lines tested here.

[9] = system: PBMCs; test: as above; type: cell-based, human; conditions: PBMCs, 2, 5, 10 nM, 24 h
Method: as §4

[10] = system: Ba/F3 ITD D835Y mutant; test: FLT3 signaling in Ba/F3 mutants, Western blot; type: cell-based, murine; conditions: 5 nM, 2 h

## CC(C)(C)c1cc(NC(=O)Nc2ccc3oc(C(=O)c4cc5cc(O)ccc5[nH]4)cc3c2)no1 [Marbotinib, 1-(5-(tert-butyl)isoxazol-3-yl)-3-(2-(5-hydroxy-1H-indole-2-carbonyl)benzofuran-5-yl)urea]
[1]
  p-STAT5: clear reduction
[1]; 1 h
  p-FLT3-ITD: clearly reduces
[2]
  cell cycle distribution / subG1 fraction: not affected
[3]
  cell cycle distribution / subG1 fraction: not affected
[4]
  cell cycle distribution / subG1 fraction: not affected
[5]
  signal of p-FLT3: strong reduction
  signal of p-STAT5: strong reduction
[6]
  block of FLT3-ITD and its associated signaling cascades: effectively block
[7]
  cell viability, efficacy compared with AC220: more effective than compound AC220
[8]
  apoptosis (AnnexinV FITC/PI): clear induction of apoptosis
[9]
  apoptosis (AnnexinV FITC/PI): no changes in basal apoptosis
[10]
  signal of p-FLT3 and p-STAT5: strong reduction
